Source: article PMC5691054, “An unexpected protein interaction promotes drug resistance in leukemia” (Nature Communications, 2017)
“Also recorded” adds a separate entry of the source. Where no end group is shown, it is not given here.

Experiments:
[1] = system: HEK293 cells; test: 6MP cytotoxicity / drug resistance in transfected HEK293 cells; assay type: cell-based, Human; details: for IC50: Homo sapiens, HEK293, 96 h, HEK293 expressing ABCC4, CellTiter Glo
Method: (§1) HEK293 cells transfected with ABCC4 or ABCC4ΔC in the presence or absence of MPP1, MO7e, and Meg01 cells were treated with 10 concentrations of 6MP, ranging from 1 to 1000 µM, for 96 h. Cell viability analysis was determined using CellTiter Glo (Promega). Where applicable, cell penetrating peptides conjugated to the PDZ-binding motif of ABCC4 (labeled either ABCC4-PDZ or ABCC4ΔC) were added to the cells at 20 μM. Media was changed daily and new ABCC4-PDZ/ABCC4ΔC peptide and 6MP was added. IC50 values were calculated using GraphPad Prism.

[2] = system: MO7e cells; test: 6MP cytotoxicity in MO7e cells and CRISPR knock-outs; assay type: cell-based, Human; details: for IC50: Homo sapiens, Mo7e, 96 h, CellTiter Glo, triplicate; for decrease of 6MP resistance vs. parental cells: MO7e
Method: as §1
CRISPR-Cas9 plasmids containing gRNAs against ABCC4 ([…]) and MPP1 ([…]) were purchased from Sigma Aldrich. MO7e cells were transiently transfected with constructs containing the gRNA, Cas9 Nickase, and a flurophore. Forty-eight hours after transfection, cells were sorted for fluorescent positive cells and single cells were sorted into individual wells of a 96-well plate. Single-sorted cells were allowed to expand and deletion of the gene of interest was verified by immunoblotting.
The Meg01, MO7e, and ABCC4 KO MO7e cell lines were plated at 1500 cells per well in a 96-well plate. Cells were treated with 10 concentrations of Antimycin A (Santa Cruz) ranging from 0.01 to 1000 μM. Cell viability was determined using CellTiter Glo (Promega). Meg01, MO7e, and ABCC4 KO MO7e cells in the presence or absence of 10 nM Antimycin A were treated with 10 concentrations of 6MP, ranging from 1 to 1000 µM, for 96 h. Cell viability analysis was determined using CellTiter Glo. IC50 values were calculated using GraphPad Prism.

[3] = system: HEK293 cells; test: Etoposide cytotoxicity in transfected HEK293 cells; assay type: cell-based, Human; details: for IC50: Homo sapiens, triplicate
[4] = system: MO7e cells; test: Etoposide cytotoxicity in MO7e cells and CRISPR knock-outs; assay type: cell-based, Human; details: for IC50: Homo sapiens, Mo7e, triplicate
[5] = system: primary AML cells from adult patients; test: Annexin V/PI apoptosis in primary AML patient samples; assay type: cell-based, Human
Method: Primary AML cells from adult patients were treated with either vehicle, 50 or 100 µM cytarabine, 10 nM Antimycin A, or the combination of 50 or 100 µM cytarabine + 10 nM Antimycin A for 4 h. Post treatment, the cells were washed with fresh media (2×) and resuspended in the absence or presence of 10 nM Antimycin A and cultured for an additional 44 h (for a total treatment time of 48 h). The cells were then stained with Annexin V-fluorescein isothiocyanate (FITC)/propidium iodide (PI) apoptosis Kit (Beckman Coulter; Brea, CA, USA). The stage of apoptotic cells (Annexin V-positive, but early or late apoptosis) is identified by the proportion of AnnexinV+/PI− (early apoptosis) and Annexin V+/PI+ (late apoptosis) cells. This experiment was performed once in triplicates (presented as average ± SEM) due to the limited sample availability. Patient samples were selected based on the availability of an adequate number of cells to perform the assay.

[6] = target: T1, MPP1 and ABCC4 protein interaction (Homo sapiens, UniProt Q00013); test: Competition of ABCC4 C-terminal peptides with MPP1–ABCC4 complex (GST-ABCC4-C100 pull-down, immunoblot); assay type: biochemical; details: in words; in vitro competition experiment
T1 construct: For full-length expression of MPP1, the pTriX vector containing an N-terminal His tag was used to create the His-S-MPP1 fusion protein; made in house; host or cells: E. coli
T1 sequence (Q00013 1-466): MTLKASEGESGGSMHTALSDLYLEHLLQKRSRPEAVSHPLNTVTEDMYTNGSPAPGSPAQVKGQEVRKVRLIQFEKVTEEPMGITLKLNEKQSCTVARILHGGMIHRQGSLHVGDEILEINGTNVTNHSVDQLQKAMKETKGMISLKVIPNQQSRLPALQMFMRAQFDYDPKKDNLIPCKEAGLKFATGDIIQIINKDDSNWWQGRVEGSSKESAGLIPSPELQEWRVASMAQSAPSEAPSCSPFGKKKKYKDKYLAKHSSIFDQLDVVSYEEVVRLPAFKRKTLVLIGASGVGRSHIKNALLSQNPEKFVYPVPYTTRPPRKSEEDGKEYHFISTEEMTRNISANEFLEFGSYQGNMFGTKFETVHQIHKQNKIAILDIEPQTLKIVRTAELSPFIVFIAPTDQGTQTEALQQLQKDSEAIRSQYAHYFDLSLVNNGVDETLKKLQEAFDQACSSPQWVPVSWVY
Method: C-terminal peptides of ABCC4 containing the carboxyl-terminal 15 amino acids ([…]-COOH, ABCC4-PDZ) or carboxyl-terminal 11 amino acids lacking the PDZ-binding motif ([…]-COOH, ABCC4ΔC) conjugated to the cell penetrating peptide TAT ([…]) were chemically synthesized by the Hartwell Center for Bionformatics and Biotechnology at SJCRH. ABCC4 peptides (1–4 μM) were mixed with purified GST-ABCC4-C100 (50 nM) (Supplementary Fig. 10 ) before addition of His-S-MPP1 (3.6 nM) and allowed to mix for 2 h at 24 °C. The GST-ABCC4-C100 was immobilized on glutathione beads, and washed 3 times. Protein complexes were eluted from the beads, separated by SDS-PAGE, and immunoblotted with rabbit anti-MPP1.

[7] = system: ABCC4 plasma membrane localization in HEK293 cells expressing MPP1 and GFP-ABCC4; test: ABCC4 plasma membrane localization (confocal microscopy); assay type: cell-based, Human
Method: Peptides containing or lacking the ABCC4-PDZ motif were fused with the cell penetrating HIV-TAT peptide. These peptides were tested for their effect on ABCC4 plasma membrane localization. HEK293 cells were transfected with MPP1 and GFP-ABCC4 and the ER protein, calreticulin. The plasma membrane was counter-stained with wheat-germ-agglutinin (WGA) labeled with Alexa647 after treatment with either ABCC4-PDZ or ABCC4ΔC peptide.
HEK293 cells were seeded on chambered coverglass slides (LAB-TEK) 48 h before transfection with plasmid DNA (250 ng) encoding pAc-GFP-ABCC4 or ABCC4ΔC and pCal plasmid encoding the ER resident protein calreticulin conjugated to RFP (Origene). Transfection was performed using Lipofectamine 2000 as per the manufacturer’s instructions. Immediately prior to visualizing cells, cells were counterstained with the plasma membrane marker wheat-germ agglutinin (WGA) conjugated to Alexa-647 (Invitrogen). All confocal microscopy images were acquired on a 3i Marianas system configured with an Yokagowa CSU-X spinning disk confocal microscope utilizing a ×63 Zeiss objective, using the 488 (GFP), 561 (RFP), and 660 (far red) laser lines.

[8] = system: MO7e cells; test: 6MP cytotoxicity in MO7e cells and CRISPR knock-outs; assay type: cell-based, Human; details: cell permeable peptide (10 μM), in words
[9] = system: murine hematopoietic progenitor cells (HPC); test: Hematopoietic progenitor cell serial replating in methylcellulose; details: HPC transduced with MPP1; cell penetrating peptide, fresh at each replating; n = 3
Method: In these experiments, littermates were used as controls. Bone marrow from 8- to 12-week-old female virgin C57/BL6 mice were harvested. Progenitors were enriched by incubating with lineage-PE antibodies (CD4, CD8, Mac1, Gr1, NK1.1, B220, and Ter119) and separated using AutoMACS Pro (Miltenyi). Hematopoetic progenitor cells were cultured in the presence of recombinant murine SCF (rmSCF), IL3 (rmIL3), and IL6 (rmIL6) (Peprotech; all 50 ng/ml) for 48 h before transduction on RetroNectin (Takara) coated plates. Retroviral supernatant containing media was produced by transient transfection of HEK293T cells with MSCV based retroviral plasmids encoding either MYCN-ires-YFP or MPP1-ires-CFP as previously described[35]. Forty-eight hours post transduction, cells were harvested, sorted for either YFP or CFP expression, and plated on methylcellulose containing IL3, IL6, SCF, and EPO (Stem Cell Technologies). Colonies were counted after 7 days growth at 37 °C, harvested, and replated.

[10] = system: ABCC4 (MO7e lysates); test: Immunoprecipitation of ABCC4 from MO7e lysates by purified MPP1 fragments; assay type: binding, Human; details: purified fragment with MO7e lysates, n = 3, in words
Excerpt: For full-length expression of MPP1, the pTriX vector containing an N-terminal His tag was used to create the His-S-MPP1 fusion protein. Proteins were expressed in E. coli and purified using a nickel column (Supplementary Fig. 9). The production of cDNA constructs containing various defined segments of MPP1 has been described previously. The cDNA fragments containing either the N-terminal domain of MPP1 (amino acids 1–83), the PDZ domain (amino acids 83–160) or the C-terminal domain, containing both the SH3 and GUK domains (amino acids 161–466), were PCR amplified and subcloned into the pGex vector. All clones were fully sequenced to confirm their identity and reading frame. The GST-fusion proteins were purified using a glutathione column.

With Sc1ncnc2nc[nH]c12 [6MP, 6-mercaptopurine] the “effect of MPP1 on survival of cells expressing ABCC4 lacking the PDZ motif” value ([1]; HEK293, ABCC4ΔC, in words) was “no additional survival benefit”, the “increase of 6MP IC50 by ABCC4 expression” value ([1]; HEK293 ABCC4 vs. empty vector (Ctrl)) was 2.6 fold and the IC50 ([1]; end of the shift with increasing MPP1 (P < 0.05), 96 h) was 608 µM. It also gave an IC50 ([1]; start of the shift with increasing MPP1, 96 h) of 184 µM, an IC50 ([2]; MO7e + Antimycin A (10 nM), Fig. 6a) of 13.6 µM and an IC50 ([2]; MO7e ABCC4 KO + Antimycin A (10 nM), Fig. 6a) of 22.2 µM. For the same molecule, the IC50 ([2]; MO7e ABCC4 KO, Fig. 4f) was 27.6 µM, the IC50 ([2]; MO7e DKO (ABCC4 and MPP1), Fig. 4f) was 10.9 µM and the IC50 ([2]; MO7e MPP1 KO, Fig. 4f) was 27.7 µM. The IC50 ([2]; MO7e parental, Fig. 4f) was 135 µM, the IC50 ([2]; without Antimycin A, Fig. 6a) was 135 µM and the “decrease of 6MP resistance vs. parental cells” value ([2]; MPP1 deletion alone) was “over fourfold”. For the same molecule, the “decrease of 6MP resistance vs. parental cells” value ([2]; deletion of ABCC4) was “over fourfold”.

In the case of COc1cc([C@@H]2c3cc4c(cc3[C@@H](O[C@@H]3O[C@@H]5CO[C@@H](C)O[C@H]5[C@H](O)[C@H]3O)[C@H]3COC(=O)[C@H]23)OCO4)cc(OC)c1O [Etoposide, etoposide], the “effect of ABCC4 and/or MPP1 on etoposide sensitivity” value ([3]; HEK293, in words) is reported as “not affected by MPP1; also recorded: not affected by the presence of either ABCC4 and/or MPP1”, the IC50 ([3]; HEK293, HEK293 ABCC4 + MPP1) is reported as 1.2 µM and the IC50 ([3]; HEK293, HEK293 ABCC4) is reported as 1.3 µM. For the same molecule, the IC50 ([3]; HEK293, HEK293 ABCC4ΔC + MPP1) was 1.2 µM, the IC50 ([3]; HEK293, HEK293 ABCC4ΔC) was 1.5 µM and the IC50 ([3]; HEK293, HEK293 Ctrl (empty vector)) was 1.4 µM. It also gave an IC50 ([4]; MO7e ABCC4 KO) of 23.9 µM, an IC50 ([4]; MO7e DKO) of 21.5 µM and an IC50 ([4]; MO7e MPP1 KO) of 20 µM. For the same molecule, the IC50 ([4]; MO7e parental) was 27.2 µM and the “etoposide sensitivity of knock-out strains” value ([4]; MO7e ABCC4 KO, MPP1 KO, DKO, in words) was “did not affect etoposide sensitivity; also recorded: equally sensitive to etoposide”.

With Nc1ccn([C@@H]2O[C@H](CO)[C@@H](O)[C@@H]2O)c(=O)n1 [cytarabine, cytosine arabinoside] the “cytarabine response of primary AML cells” value ([5]; one primary AML patient sample, in culture and in vivo (peer review file)) was “non-responsive” and the “cytarabine response of primary AML cells” value ([5]; the other patient sample (peer review file)) was “sensitive”.

In the case of “SNGQPSTLTIF-COOH (YGRKKRRQRRRSNGQPSTLTIF-OH) [ABCC4ΔC]”, the “disruption of the MPP1 and ABCC4 protein interaction” value [6] is reported as “incapable of disrupting the MPP1 and ABCC4 protein interaction”, the “ABCC4 remaining at the membrane” value ([7]; cell penetrating peptide (TAT fused; 10 μM in Supplementary Fig. 4), n = 20 fields of view) is reported as greater than 80% and the “effect on ABCC4 plasma membrane localization” value ([7]; in words, confocal microscopy) is reported as “ineffective in relocalizing ABCC4”. For the same molecule, the “effect of peptide on 6MP IC50” value ([1]; HEK293 co-expressing ABCC4 and MPP1, cell penetrating peptide (20 μM in methods; various amounts), 96 h, in words) was “without effect; also recorded: no effect on 6MP IC50 values”, the “effect of peptide on 6MP sensitivity” value [8] was “had no effect” and the “effect on MPP1-driven methylcellulose replating” value [9] was “incapable of suppressing MPP1-stimulated replating”.

B1: SH3 and GUK domain: SH3 and GUK domain of MPP1 (amino acids 162–466) (protein, UniProt Q00013 162-466, looked up, fragment)
chain: FMRAQFDYDPKKDNLIPCKEAGLKFATGDIIQIINKDDSNWWQGRVEGSSKESAGLIPSPELQEWRVASMAQSAPSEAPSCSPFGKKKKYKDKYLAKHSSIFDQLDVVSYEEVVRLPAFKRKTLVLIGASGVGRSHIKNALLSQNPEKFVYPVPYTTRPPRKSEEDGKEYHFISTEEMTRNISANEFLEFGSYQGNMFGTKFETVHQIHKQNKIAILDIEPQTLKIVRTAELSPFIVFIAPTDQGTQTEALQQLQKDSEAIRSQYAHYFDLSLVNNGVDETLKKLQEAFDQACSSPQWVPVSWVY
In the case of B1, the “immunoprecipitation of ABCC4” value [10] is reported as “incapable of immunoprecipitating ABCC4”.

B2: MPP1 N terminus: MPP1 N terminus, up to the PDZ domain (amino acids 1–83) (protein, UniProt Q00013 1-83, looked up, fragment)
chain: MTLKASEGESGGSMHTALSDLYLEHLLQKRSRPEAVSHPLNTVTEDMYTNGSPAPGSPAQVKGQEVRKVRLIQFEKVTEEPMG
B2 was tested, and the “immunoprecipitation of ABCC4” value [10] was “incapable of immunoprecipitating ABCC4”.
